The structures appear in SMILES notation.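 In this assay, cells in 96-well plates receive the compound at five concentrations for 48 hours. Endpoints are linearly interpolated between the surrounding concentrations. The concentration for 50% growth inhibition is given as GI50. TGI is the concentration that stops growth completely.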 Where only a bound is given, the exact number is not on record here.

Some test systems named below: OVCAR-4 ovarian; ACHN renal; HT29 colon; SN12C renal; K-562 leukemia; SR leukemia; HCC-2998 colon; SW-620 colon; IGROV1 ovarian; MDA-MB-435.
Holding throughout (experiment): NCI tumour cell line growth inhibition, 48 h

`Cc1nsc2cc(Cl)n(C)c(=O)c12`: the TGI with OVCAR-4 ovarian, with ACHN renal, in the experiment on HT29 colon, with SN12C renal, in the experiment on K-562 leukemia and in the experiment with SR leukemia was above 100 µM in each case. Further, the TGI in the experiment with HCC-2998 colon, in the experiment on SW-620 colon and in the experiment on IGROV1 ovarian was above 100 µM in each case.

As for `Cc1ccccc1-c1cc(=O)c2cc(C)c(C)c(C(=O)O)c2o1`, the TGI in the experiment with OVCAR-4 ovarian, in the experiment with ACHN renal, with HT29 colon, in the experiment with SN12C renal, with K-562 leukemia and in the experiment on SR leukemia was above 100 µM throughout. The TGI in the experiment on HCC-2998 colon, in the experiment with SW-620 colon and in the experiment with IGROV1 ovarian was above 100 µM throughout.

In the case of `NNC(=S)N/N=C(\c1nc2ccc(Cl)cc2[nH]c1=O)C(O)c1cccc([N+](=O)[O-])c1` (configuration not stated), the TGI with OVCAR-4 ovarian was above 100 µM; in the experiment with ACHN renal, above 100 µM; with HT29 colon, above 50.9 µM; in the experiment with SN12C renal it was above 100 µM; in the experiment with K-562 leukemia, above 70.2 µM; in the experiment with SR leukemia, 33.8 µM. Also, the TGI in the experiment with HCC-2998 colon is above 100 µM; in the experiment with SW-620 colon it was 41.9 µM; in the experiment with IGROV1 ovarian it was above 100 µM.

As to `CCOC(=O)c1nc2sc(Cl)cn2c1/C=N/N=C(N)N`, the GI50 with OVCAR-4 ovarian was 30300 nM; in the experiment with ACHN renal it was 22.3 µM; in the experiment with HT29 colon, 28.7 µM; in the experiment with SN12C renal it was 24000 nM; with K-562 leukemia it was 17000 nM; with MDA-MB-435, 25300 nM. The GI50 in the experiment on SW-620 colon is 14700 nM; with IGROV1 ovarian, 32700 nM. Further, the TGI was above 100 µM in the experiment with OVCAR-4 ovarian; 53.4 µM with ACHN renal; above 86.4 µM in the experiment on HT29 colon; 57.6 µM in the experiment on SN12C renal; 53.6 µM in the experiment on K-562 leukemia; above 58.2 µM in the experiment on MDA-MB-435. Further, the TGI was 43.8 µM in the experiment with SW-620 colon and above 100 µM in the experiment with IGROV1 ovarian.

For `CN(C)Cc1c[nH]c2nc[nH]c(=O)c12`, the TGI is above 100 µM in the experiment on OVCAR-4 ovarian; above 100 µM with ACHN renal; above 100 µM in the experiment on HT29 colon; above 100 µM in the experiment on SN12C renal; 44.4 µM in the experiment on K-562 leukemia; 53.7 µM with SR leukemia. The TGI with MDA-MB-435, with SW-620 colon and with IGROV1 ovarian was above 100 µM in each case.

Consider `CC[P+](C)(C)CC`, for which the TGI with OVCAR-4 ovarian, in the experiment with ACHN renal, in the experiment on HT29 colon, in the experiment on SN12C renal, with K-562 leukemia and with SR leukemia was above 100 µM throughout. The TGI in the experiment on HCC-2998 colon, in the experiment on SW-620 colon and in the experiment with IGROV1 ovarian was above 100 µM in each case.

As to `CC(C)(C)c1ccc(OCCCCCCCN2CCNCC2)cc1`, the GI50 is 1600 nM with OVCAR-4 ovarian; 2730 nM with SN12C renal; 1560 nM in the experiment on K-562 leukemia; 1700 nM in the experiment on HCC-2998 colon; 1570 nM in the experiment with MDA-MB-435; 1670 nM with SW-620 colon. Moreover, the GI50 with IGROV1 ovarian was 1920 nM. In addition, the TGI is 3.22 µM in the experiment with OVCAR-4 ovarian; 7.62 µM in the experiment on SN12C renal; 3.81 µM with K-562 leukemia; 3.22 µM in the experiment with HCC-2998 colon; 2.98 µM with MDA-MB-435; 3.26 µM in the experiment with SW-620 colon. The TGI with IGROV1 ovarian was found to be 3.66 µM.

Consider `Oc1ccc(Br)cc1C=Nc1ccc(Oc2ccc(N=Cc3cc(Br)ccc3O)cc2)cc1`, for which the TGI with OVCAR-4 ovarian, in the experiment on ACHN renal, in the experiment with HT29 colon, in the experiment with SN12C renal, with K-562 leukemia and in the experiment with SR leukemia was above 19.6 µM throughout. Besides, the TGI with HCC-2998 colon, with SW-620 colon and in the experiment on IGROV1 ovarian was above 19.6 µM in each case.

With `CC(=O)OC1CCC2(C)C(=CCC3C2CCC2(C)C3CC3OC4(CCC(C)CN4)C(C)C32)C1` (configuration not stated), the TGI in the experiment on OVCAR-4 ovarian, with ACHN renal, in the experiment on HT29 colon, with SN12C renal, in the experiment on K-562 leukemia and in the experiment on SR leukemia was above 100 µM each time. The TGI in the experiment with MDA-MB-435, in the experiment with SW-620 colon and with IGROV1 ovarian was above 100 µM throughout.

Take `O=C1/C(=C/c2ccc([N+](=O)[O-])s2)Oc2ccc(Br)cc21`: the GI50 was 352 nM with OVCAR-4 ovarian; 0.199 µM with ACHN renal; 567 nM in the experiment on SN12C renal; 135 nM in the experiment with K-562 leukemia; 152 nM in the experiment on SR leukemia; 443 nM in the experiment with HCC-2998 colon. Moreover, the GI50 with MDA-MB-435 is 397 nM; with SW-620 colon, 242 nM; in the experiment on IGROV1 ovarian, 309 nM. Moreover, the TGI in the experiment with OVCAR-4 ovarian worked out at 1.43 µM; in the experiment on ACHN renal, 0.414 µM; with SN12C renal it was 2.93 µM; with K-562 leukemia it was 0.833 µM; with SR leukemia it was 0.914 µM; with HCC-2998 colon, 1.68 µM. Further, the results for the TGI in the experiment with MDA-MB-435, in the experiment with SW-620 colon and with IGROV1 ovarian were 1.78 µM, 0.664 µM and 0.964 µM, respectively.

For `CN(C)Cc1nsc(N(C)C)n1`, the TGI in the experiment with OVCAR-4 ovarian, in the experiment on ACHN renal, in the experiment on HT29 colon, in the experiment with SN12C renal, in the experiment with K-562 leukemia and with MDA-MB-435 was above 100 µM each time. In addition, the TGI in the experiment with SW-620 colon and with IGROV1 ovarian was above 100 µM in each case.

For the compound `CCCCCCCCCCCCNC(=S)OCCCC`, the TGI with OVCAR-4 ovarian, in the experiment with ACHN renal, with HT29 colon, in the experiment with SN12C renal, with K-562 leukemia and with SR leukemia was above 100 µM in each case. Also, the TGI in the experiment with HCC-2998 colon, in the experiment on SW-620 colon and with IGROV1 ovarian was above 100 µM throughout.

For the compound `O=C(O)CC(CC(=O)O)n1cccc1`, the TGI in the experiment on OVCAR-4 ovarian, in the experiment with ACHN renal, in the experiment with HT29 colon, in the experiment on SN12C renal, in the experiment with K-562 leukemia and in the experiment on SR leukemia was above 100 µM in each case. In addition, the TGI in the experiment on MDA-MB-435, in the experiment with SW-620 colon and in the experiment on IGROV1 ovarian was above 100 µM throughout.

Source of the values: PubChem BioAssay (NCI).
